Experimental data taken from ChEMBL document CHEMBL3045111, “Synthesis and herbicidal activities of novel 3-(substituted benzyloxy or phenoxy)-6-methyl-4-(3-trifluoromethylphenyl)pyridazine derivatives” (2012).
Activity calls are given as the source filed them. The calls are words filed in the database; no cut-off is given here.

Key:
[1] = system: Brassica rapa subsp. oleifera; test: Post-emergence herbicidal activity against one-leaf stage Brassica rapa subsp. oleifera under greenhouse condition assessed as complete bleaching of leaves at 600 g /ha measured after 24 days by spray method; format: functional, organism-based
[2] = system: Brassica rapa subsp. oleifera; test: Post-emergence herbicidal activity against one-leaf stage Brassica rapa subsp. oleifera under greenhouse condition at 75 g /ha measured after 24 days by spray method; format: functional; conditions: 576 h, read-out: GI
[3] = system: Brassica rapa subsp. oleifera; test: Post-emergence herbicidal activity against one-leaf stage Brassica rapa subsp. oleifera under greenhouse condition at 150 g /ha measured after 24 days by spray method; format: functional; conditions: 576 h, read-out: GI
[4] = system: Brassica rapa subsp. oleifera; test: Post-emergence herbicidal activity against one-leaf stage Brassica rapa subsp. oleifera under greenhouse condition at 300 g /ha measured after 24 days by spray method; format: functional; conditions: 576 h, read-out: GI
[5] = system: Brassica rapa subsp. oleifera; test: Post-emergence herbicidal activity against one-leaf stage Brassica rapa subsp. oleifera under greenhouse condition at 600 g /ha measured after 24 days by spray method; format: functional; conditions: 576 h, read-out: GI
Digitaria [6] = test: Post-emergence herbicidal activity against one-leaf stage of Digitaria adscendens under greenhouse condition at 750 g /ha measured after 24 days by spray method; format: functional; conditions: in Digitaria adscendens, 576 h, read-out: GI
Echinochloa crus-galli [7] = test: Post-emergence herbicidal activity against one-leaf stage of Echinochloa crus-galli (barnyard grass) under greenhouse condition at 750 g /ha measured after 24 days by spray method; format: functional; conditions: 576 h, read-out: GI
Amaranthus retroflexus [8] = test: Post-emergence herbicidal activity against one-leaf stage of Amaranthus retroflexus under greenhouse condition at 750 g /ha measured after 24 days by spray method; format: functional; conditions: 576 h, read-out: GI
[9] = system: Brassica rapa subsp. oleifera; test: Post-emergence herbicidal activity against one-leaf stage Brassica rapa subsp. oleifera under greenhouse condition at 750 g /ha measured after 24 days by spray method; format: functional; conditions: 576 h, read-out: GI
Digitaria [10] = test: Pre-emergence herbicidal activity against Digitaria adscendens under greenhouse condition at 750 g /ha measured after 24 days by spray method; format: functional; conditions: in Digitaria adscendens, 576 h, read-out: GI
Echinochloa crus-galli [11] = test: Pre-emergence herbicidal activity against Echinochloa crus-galli (barnyard grass) under greenhouse condition at 750 g /ha measured after 24 days by spray method; format: functional; conditions: 576 h, read-out: GI
Amaranthus retroflexus [12] = test: Pre-emergence herbicidal activity against Amaranthus retroflexus under greenhouse condition at 750 g /ha measured after 24 days by spray method; format: functional; conditions: 576 h, read-out: GI
[13] = system: Brassica rapa subsp. oleifera; test: Pre-emergence herbicidal activity against Brassica rapa subsp. oleifera under greenhouse condition at 750 g /ha measured after 24 days by spray method; format: functional; conditions: 576 h, read-out: GI
Spirodela polyrhiza [14] = test: Bleaching herbicidal activity in Spirodela polyrhiza fronds cultured in compound-containing in medium assessed as chlorophyll inhibition at 1 ug/ml after 7 days; format: functional; conditions: 168 h
Spirodela polyrhiza [15] = test: Bleaching herbicidal activity in Spirodela polyrhiza fronds cultured in compound-containing in medium assessed as chlorophyll inhibition at 10 ug/ml after 7 days; format: functional; conditions: 168 h
Amaranthus retroflexus [16] = test: Post-emergence herbicidal activity against one-leaf stage Amaranthus retroflexus under greenhouse condition assessed as complete bleaching of leaves at 150 g /ha measured after 24 days by spray method; format: functional, organism-based
Amaranthus retroflexus [17] = test: Post-emergence herbicidal activity against one-leaf stage Amaranthus retroflexus under greenhouse condition assessed as complete bleaching of leaves at 300 g /ha measured after 24 days by spray method; format: functional, organism-based
Amaranthus retroflexus [18] = test: Post-emergence herbicidal activity against one-leaf stage Amaranthus retroflexus under greenhouse condition assessed as complete bleaching of leaves at 600 g /ha measured after 24 days by spray method; format: functional, organism-based
[19] = system: Brassica rapa subsp. oleifera; test: Post-emergence herbicidal activity against one-leaf stage Brassica rapa subsp. oleifera under greenhouse condition assessed as complete bleaching of leaves at 75 g /ha measured after 24 days by spray method; format: functional, organism-based
[20] = system: Brassica rapa subsp. oleifera; test: Post-emergence herbicidal activity against one-leaf stage Brassica rapa subsp. oleifera under greenhouse condition assessed as complete bleaching of leaves at 150 g /ha measured after 24 days by spray method; format: functional, organism-based
[21] = system: Brassica rapa subsp. oleifera; test: Post-emergence herbicidal activity against one-leaf stage Brassica rapa subsp. oleifera under greenhouse condition assessed as complete bleaching of leaves at 300 g /ha measured after 24 days by spray method; format: functional, organism-based
Amaranthus retroflexus [22] = test: Post-emergence herbicidal activity against one-leaf stage Amaranthus retroflexus under greenhouse condition at 75 g /ha measured after 24 days by spray method; format: functional; conditions: 576 h, read-out: GI
Amaranthus retroflexus [23] = test: Post-emergence herbicidal activity against one-leaf stage Amaranthus retroflexus under greenhouse condition at 150 g /ha measured after 24 days by spray method; format: functional; conditions: 576 h, read-out: GI
Amaranthus retroflexus [24] = test: Post-emergence herbicidal activity against one-leaf stage Amaranthus retroflexus under greenhouse condition at 300 g /ha measured after 24 days by spray method; format: functional; conditions: 576 h, read-out: GI
Amaranthus retroflexus [25] = test: Post-emergence herbicidal activity against one-leaf stage Amaranthus retroflexus under greenhouse condition at 600 g /ha measured after 24 days by spray method; format: functional; conditions: 576 h, read-out: GI

| SMILES | Activity [1] | inhibition of growth at 150 g/ha [3] | inhibition of growth at 300 g/ha [4] | inhibition of growth at 600 g/ha [5] | inhibition of growth at 750 g/ha (Digitaria [6]) | inhibition of growth at 750 g/ha (Echinochloa crus-galli [7]) | inhibition of growth at 750 g/ha (Amaranthus retroflexus [8]) | inhibition of growth at 750 g/ha [9] | inhibition of growth at 750 g/ha (Digitaria [10]) | inhibition of growth at 750 g/ha (Echinochloa crus-galli [11]) | inhibition of growth at 750 g/ha (Amaranthus retroflexus [12]) | inhibition of growth at 750 g/ha [13] | inhibition at 1 µg/mL (Spirodela polyrhiza [14]) | inhibition at 10 µg/mL (Spirodela polyrhiza [15]) | Activity [20] | Activity [21] | other results |
| --- | --- | --- | --- | --- | --- | --- | --- | --- | --- | --- | --- | --- | --- | --- | --- | --- | --- |
| Cc1cc(-c2cccc(C(F)(F)F)c2)c(Oc2ccccc2)nn1 | Active | 53% | 56% | 75% | 88% | 26% | 75% | 99% | 87% | 0% | 0% | 0% | 68% | 75% | Active | Active | inhibition of growth at 75 g/ha [2]: 38%; Activity (Amaranthus retroflexus [16]): Active; Activity (Amaranthus retroflexus [17]): Active; Activity (Amaranthus retroflexus [18]): Active; Activity [19]: Active; inhibition of growth at 75 g/ha (Amaranthus retroflexus [22]): 22%; inhibition of growth at 150 g/ha (Amaranthus retroflexus [23]): 36%; inhibition of growth at 300 g/ha (Amaranthus retroflexus [24]): 64%; inhibition of growth at 600 g/ha (Amaranthus retroflexus [25]): 96% |
| Cc1cc(-c2cccc(C(F)(F)F)c2)c(OCc2ccccc2C(F)(F)F)nn1 | Active | 38% | 49% | 92% | 8% | 14% | 46% | 93% | 2% | 17% | 16% | 28% | 73% | 76% | Active | Active | – |
| Cc1cc(-c2cccc(C(F)(F)F)c2)c(OCc2ccccc2C)nn1 | Active | 79% | 86% | 95% | 7% | 55% | 29% | 97% | 19% | 2% | 36% | 58% | 62% | 86% | Active | Active | inhibition of growth at 75 g/ha [2]: 44%; Activity [19]: Active |
| Cc1cc(-c2cccc(C(F)(F)F)c2)c(OCc2ccccc2Cl)nn1 | Active | 57% | 96% | 97% | 26% | 16% | 47% | 90% | 26% | 0% | 40% | 52% | 59% | 93% | Active | Active | – |
| Cc1cc(-c2cccc(C(F)(F)F)c2)c(OCc2ccccc2)nn1 | Active | 62% | 86% | 92% | 0% | 29% | 50% | 94% | 7% | 27% | 38% | 55% | 62% | 82% | Active | Active | – |
| Cc1cc(-c2cccc(C(F)(F)F)c2)c(OCc2ccccc2Br)nn1 | Active | 49% | 73% | 85% | 3% | 0% | 54% | 91% | 25% | 1% | 21% | 8% | 93% | 100% | Active | Active | – |
| Cc1cc(-c2cccc(C(F)(F)F)c2)c(Oc2ccccc2Cl)nn1 | Active | 48% | 67% | 91% | 27% | 24% | 84% | 100% | 19% | 0% | 0% | 9% | 42% | 50% | Active | Active | inhibition of growth at 75 g/ha [2]: 31%; Activity (Amaranthus retroflexus [17]): Active; Activity (Amaranthus retroflexus [18]): Active; Activity [19]: Active; inhibition of growth at 75 g/ha (Amaranthus retroflexus [22]): 5%; inhibition of growth at 150 g/ha (Amaranthus retroflexus [23]): 20%; inhibition of growth at 300 g/ha (Amaranthus retroflexus [24]): 39%; inhibition of growth at 600 g/ha (Amaranthus retroflexus [25]): 65% |
| Cc1cc(-c2cccc(C(F)(F)F)c2)c(OCc2cccc(F)c2)nn1 | Active | 30% | 47% | 66% | 0% | 14% | 47% | 93% | 10% | 18% | 9% | 0% | 89% | 96% | Active | Active | – |
| Cc1cc(-c2cccc(C(F)(F)F)c2)c(OCc2ccc(N(C)C)cc2)nn1 | – | – | – | – | 11% | 0% | 21% | 7% | 6% | 17% | 11% | 4% | 64% | 97% | – | – | – |
| Cc1cc(-c2cccc(C(F)(F)F)c2)c(OCc2c(Cl)cccc2Cl)nn1 | – | – | – | – | 0% | 4% | 34% | 20% | 41% | 1% | 15% | 2% | 4% | 26% | – | – | – |
| Cc1cc(-c2cccc(C(F)(F)F)c2)c(Oc2ccccc2C(F)(F)F)nn1 | – | – | – | – | 0% | 12% | 3% | 46% | 0% | 11% | 0% | 10% | 32% | 37% | – | – | – |
